Measured values from patent publication US20080248008A1, “Inhibitors of Protein Kinase a Anchoring” (priority 2004, published 2008).

How the values were obtained:
[1] = system: N-terminal RIα deletion mutants; test: R-overlay with N-terminal RIα deletion mutants; format: binding; conditions: compared with RIα
Experimental: (§1) R-overlay. R-overlays were conducted as described, using ^32P-labeled recombinant murine RII (Hausken, Z. E., et al., 1998 in Protein Targeting Protocols, ed. Clegg, R. A. (Humana, Totowa, N.J.), Vol. 88, pp. 47-64) or recombinant bovine RI (A98S) or by cold RI-overlay where bound RIα was detected by Western blot. Cold RI-overlay was performed by incubating the membranes with 250 nM RI overnight at 4° C., then the membranes were washed five times in TBST for 5 min. Detection of RI was performed using an anti-RI rabbit polyclonal antibody (Santa Cruz) at a concentration of 0.2 μg/μl for 1 hour at 4° C. Then the membranes were washed five times for 5 minutes in PBS followed by incubation with HRP-conjugated anti-rabbit IgGs (1:5000) for 1 hour at 4° C. The membranes were washed in PBS as described above before detection by Supersignal West Dura Extended Duration Substrate (Pierce).
(§2) Constructs and mutagenesis. […]
(§3) MEME3 and SM3 (scrambled negative control peptide) were cloned by preferred codon usage (Haas et al., 1996, Current Biol., 6:315-324) and with an N-terminal GFP-fusion. Lysate from transfected HEK293 cells (FIG. 10, left panel in A) and MEME3 synthesized on membrane (right panel in A) were analysed for R binding by RIα-^32P-overlay and RIIα-^32P overlay. […]

[2] = molecular target: T1, N-terminal RIα deletion mutants (Bos taurus, UniProt P00514, A98S); test: R-overlay with N-terminal RIα deletion mutants; format: binding
T1 construct: made in house; host or cells: E. coli BL21 (B121 [sic])
T1 sequence (P00514 25-380 A98S): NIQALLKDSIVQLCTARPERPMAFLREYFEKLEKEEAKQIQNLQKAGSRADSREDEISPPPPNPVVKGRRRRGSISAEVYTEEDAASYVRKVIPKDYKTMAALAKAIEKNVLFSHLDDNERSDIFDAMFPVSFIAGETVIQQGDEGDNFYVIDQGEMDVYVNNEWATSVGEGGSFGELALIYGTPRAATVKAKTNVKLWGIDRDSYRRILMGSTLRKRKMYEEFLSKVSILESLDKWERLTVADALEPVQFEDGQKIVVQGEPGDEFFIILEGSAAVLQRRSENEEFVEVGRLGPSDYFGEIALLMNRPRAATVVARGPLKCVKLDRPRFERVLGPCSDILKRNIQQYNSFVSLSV
Experimental: as §1, §2, §3

PKA-RIα = PKA-RIα (Homo sapiens, UniProt P10644); test: Solid phase pull down from T cell lysate, PKA-RIα; format: binding; parameters: endogenous in cells; host or cells: Jurkat T cells; conditions: overnight
Experimental: Solid phase assay and cell lysate. 5×10^6 Y1 cells or 20×10^6 Jurkat T cells lysed in 150 mM NaCl, 1% NP-40, 0.5% deoxycholate, 0.1% SDS and 50 mM Tris HCl (7.8) were incubated overnight at 4° C. with MEME3 and SM3 peptides synthesized on membranes (Autospot, Intavis, AG). The membranes were washed two times for 10 minutes in lysis buffer and thereafter in high salt lysis buffer (1 M NaCl) before boiling in SDS-PAGE loading buffer.
Solid phase pull down (see schematic illustration in FIG. 24A, left panel) was performed to analyse endogenous PKA binding to MEME3. MEME3 and SM3 peptides synthesized in triplicate on membranes were incubated overnight in T cell lysate, thereafter bound proteins were eluted, subjected to 10% PAGE electrophoresis and analysed by immunoblotting (FIG. 11). The presence of PKA subunits was assessed by immunoblotting using specific antibodies against PKA-RIα and PKA-RIIα subunits.

PKA-RIIα = PKA-RIIα (Homo sapiens, UniProt P13861); test: Immunofluorescence of PKA-RIIα at centrosomes in human T cells; format: cell-based; parameters: endogenous in cells; host or cells: human peripheral blood CD3+ T cells; conditions: human peripheral blood T cells
Sequence of PKA-RIIα (P13861 whole entry): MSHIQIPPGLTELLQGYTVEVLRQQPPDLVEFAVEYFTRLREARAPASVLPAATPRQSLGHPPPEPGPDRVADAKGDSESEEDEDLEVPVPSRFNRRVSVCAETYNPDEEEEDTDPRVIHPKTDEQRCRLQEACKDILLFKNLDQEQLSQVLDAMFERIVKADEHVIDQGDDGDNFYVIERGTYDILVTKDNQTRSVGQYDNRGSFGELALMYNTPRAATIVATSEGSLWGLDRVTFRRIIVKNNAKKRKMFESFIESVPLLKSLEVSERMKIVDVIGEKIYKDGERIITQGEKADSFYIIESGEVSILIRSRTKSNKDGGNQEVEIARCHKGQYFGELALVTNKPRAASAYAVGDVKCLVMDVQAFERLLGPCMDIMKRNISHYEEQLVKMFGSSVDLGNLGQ
Experimental: Blots were developed by using Supersignal West Pico substrate (Pierce). For immunofluorescence polyclonal and monoclonal antibodies against RIα (Biogenesis), RIIα (Transduction laboratories) and AKAP450 (A24, Tasken et al., 2001, J. Biol. Chem, 276:21999-22002) were used as primary antibodies. Secondary antibodies (all Molecular Probes) were Alexa-488 conjugated anti-mouse and anti-rabbit IgG (both goat) and Alexa-555 anti-rabbit IgG (goat).
Immunofluorescence analysis of cells was performed as previously described (Collas, P. et al., 1996, J. Cell Biol. 135, 1715-1725). RI was detected by using an anti-RI monoclonal antibody (Transduction Laboratories) as a primary antibody at a […] and Alexa-488 as a secondary antibody (1:600, Goat anti Mouse IgGs, Molecular Probes). Immunofluorescence was performed on Y1 cells attached to collagen/fibronectin coated coverslips. Mitochondria were stained using MitoTracker Red CMXRos (Molecular Probes) in fresh medium with incubation at 37° C. for 30 min prior to cell fixation. All cells were washed in PBS, fixed with 3% paraformaldehyde and permeabilised using 0.1% Triton X-100. […] Alternatively, fluorescently labeled cells were examined using a Leica TCS SP1 confocal fluorescence microscope (Leica, Heidelberg, Germany) equipped with an Ar (488 nm) and two He/Ne (543 and 633 nm) laser lines. […]

CC[C@H](C)[C@H](NC(=O)[C@H](CCC(N)=O)NC(=O)[C@H](CC(=O)O)NC(=O)[C@H](C)NC(=O)[C@H](CC(C)C)NC(=O)[C@H](CCC(N)=O)NC(=O)[C@H](CC(N)=O)NC(=O)[C@H](C)NC(=O)[C@H](Cc1ccc(O)cc1)NC(=O)[C@H](CCC(N)=O)NC(=O)[C@H](CCC(=O)O)NC(=O)[C@@H](N)CC(C)C)C(=O)N[C@H](C(=O)N[C@@H](CCCCN)C(=O)N[C@@H](CCC(=O)O)C(=O)N[C@@H](C)C(=O)N[C@H](C(=O)N[C@@H](CCC(=O)O)C(=O)N[C@@H](CCCCNC(=O)c1ccc2c(c1)C(=O)OC21c2ccc(O)cc2Oc2cc(O)ccc21)C(N)=O)[C@@H](C)O)[C@@H](C)CC [MEME3]
binding to RIα (Δ1-11) and RIα (Δ1-15) (overlay) [1]: even higher affinity | binding to RIα (Δ1-24) (overlay) [2]: No binding

IEKELAQQYQNADAITLE [SM3, scrambled MEME3 negative control peptide, reference compound]
immobilization of PKA-RIα (PKA-RIα): Neither PKA-RIα nor PKA-RIIα bound

LEQYANQLADQIIKEATERRRRRRRRRrr [MEME3-Arg11]
displacement of PKA-RIIα from centrosomes (PKA-RIIα): no displacement of PKA-RIIα
